{"source": "patent US20220362249A1", "about": "“METHODS FOR TREATING […]” (PTC Therapeutics MP, Inc., priority 2019, published 2022)", "key": {"[1]": {"experiment": "Food effect on administration of sepiapterin: plasma sepiapterin and BH4 concentrations, fasted vs fed", "assay_type": "in vivo, human", "conditions": "sepiapterin 10 mg/kg oral; for concentration at 0 h / concentration at 0.5 h / concentration at 1 h / concentration at 2 h / concentration at 4 h / concentration at 8 h / concentration at 12 h / concentration at 24 h: human, oral, 10 mg/kg; for concentration at 0 h: 0 h (predose)", "experimental": "Method: Subjects received 2 oral doses of sepiapterin (10 mg/kg) separated by 1 week in a fasted and fed state. Subjects were fed a standard high-fat (approximately 50 percent of total caloric content of the meal) and high-calorie (approximately 800 to 1000 calories) meal starting 30 minutes prior to receiving their second oral dose of sepiapterin on Day 8.\nSampling for PK analysis occurred predose on Days 1 and 8 (within 30 minutes before dosing) and 0.5 hr, 1 hr, 2 hr, 4 hr, 8 hr, 12 hr, and 24 hr after the doses on Days 1 and 8. The blood concentrations of sepiapterin and BH4 were analyzed by MNG Labs."}, "[2]": {"experiment": "Pharmacokinetic analysis of multiple doses of sepiapterin (once daily for 7 days, fed subjects)", "assay_type": "in vivo, human", "conditions": "human, plasma, fed; for AUC(0-t): read-out: AUC0-24; for Cmax: read-out: Cmax", "source_text": "Methods: Three cohorts of eight fed subjects each were randomized to receive once-daily sepiapterin or placebo for 7 days in a 6:2 ratio. A sentinel dose strategy was also used for administration of the highest sepiapterin dose."}, "[3]": {"conditions": "plasma, fasted, read-out: Concentration in Plasma, Maximum"}, "[4]": {"conditions": "plasma, fasted, read-out: Concentration in Plasma, Mean"}, "[5]": {"conditions": "plasma, fasted, read-out: Concentration in Plasma, Median"}, "[6]": {"conditions": "plasma, fasted, read-out: Concentration in Plasma, Minimum"}, "[7]": {"conditions": "plasma, fed (high-fat meal), read-out: Concentration in Plasma, Maximum"}, "[8]": {"conditions": "plasma, fed (high-fat meal), read-out: Concentration in Plasma, Mean"}, "[9]": {"conditions": "plasma, fed (high-fat meal), read-out: Concentration in Plasma, Median"}, "[10]": {"conditions": "plasma, fed (high-fat meal), read-out: Concentration in Plasma, Minimum"}, "[11]": {"conditions": "5 mg/kg, Day 1, sepiapterin 5 mg/kg once daily"}, "[12]": {"conditions": "5 mg/kg, Day 7, sepiapterin 5 mg/kg once daily"}, "[13]": {"conditions": "20 mg/kg, Day 1, sepiapterin 20 mg/kg once daily"}, "[14]": {"conditions": "20 mg/kg, Day 7, sepiapterin 20 mg/kg once daily"}, "[15]": {"conditions": "60 mg/kg, Day 1, sepiapterin 60 mg/kg once daily"}, "[16]": {"conditions": "60 mg/kg, Day 7, sepiapterin 60 mg/kg once daily"}}, "note": "Where two headings read alike, the source gives them in different places.", "data": [{"smiles": "C[C@H](O)[C@H](O)[C@H]1CNc2nc(N)[nH]c(=O)c2N1", "note": "[BH4, Tetrahydrobiopterin]", "values": [{"measurement": "concentration at 0 h", "setting": "[1]; [3]", "result": 9, "unit": "nM"}, {"measurement": "concentration at 0 h", "setting": "[1]; [4]", "result": 7.62, "unit": "nM"}, {"measurement": "concentration at 0 h", "setting": "[1]; [5]", "result": 7.75, "unit": "nM"}, {"measurement": "concentration at 0 h", "setting": "[1]; [6]", "result": 5, "unit": "nM"}, {"measurement": "concentration at 0.5 h", "setting": "[1]; [3]", "result": 66.5, "unit": "nM"}, {"measurement": "concentration at 0.5 h", "setting": "[1]; [4]", "result": 25.6, "unit": "nM"}, {"measurement": "concentration at 0.5 h", "setting": "[1]; [5]", "result": 22.9, "unit": "nM"}, {"measurement": "concentration at 0.5 h", "setting": "[1]; [6]", "result": 13.8, "unit": "nM"}, {"measurement": "concentration at 1 h", "setting": "[1]; [3]", "result": 223, "unit": "nM"}, {"measurement": "concentration at 1 h", "setting": "[1]; [4]", "result": 155, "unit": "nM"}, {"measurement": "concentration at 1 h", "setting": "[1]; [5]", "result": 147, "unit": "nM"}, {"measurement": "concentration at 1 h", "setting": "[1]; [6]", "result": 98.5, "unit": "nM"}, {"measurement": "concentration at 2 h", "setting": "[1]; [3]", "result": 618, "unit": "nM"}, {"measurement": "concentration at 2 h", "setting": "[1]; [4]", "result": 413, "unit": "nM"}, {"measurement": "concentration at 2 h", "setting": "[1]; [5]", "result": 370, "unit": "nM"}, {"measurement": "concentration at 2 h", "setting": "[1]; [6]", "result": 271, "unit": "nM"}, {"measurement": "concentration at 4 h", "setting": "[1]; [3]", "result": 1130, "unit": "nM"}, {"measurement": "concentration at 4 h", "setting": "[1]; [4]", "result": 624, "unit": "nM"}, {"measurement": "concentration at 4 h", "setting": "[1]; [5]", "result": 635, "unit": "nM"}, {"measurement": "concentration at 4 h", "setting": "[1]; [6]", "result": 379, "unit": "nM"}, {"measurement": "concentration at 8 h", "setting": "[1]; [3]", "result": 457, "unit": "nM"}, {"measurement": "concentration at 8 h", "setting": "[1]; [4]", "result": 248, "unit": "nM"}, {"measurement": "concentration at 8 h", "setting": "[1]; [5]", "result": 233, "unit": "nM"}, {"measurement": "concentration at 8 h", "setting": "[1]; [6]", "result": 90.2, "unit": "nM"}, {"measurement": "concentration at 12 h", "setting": "[1]; [3]", "result": 162, "unit": "nM"}, {"measurement": "concentration at 12 h", "setting": "[1]; [4]", "result": 85.9, "unit": "nM"}, {"measurement": "concentration at 12 h", "setting": "[1]; [5]", "result": 75.3, "unit": "nM"}, {"measurement": "concentration at 12 h", "setting": "[1]; [6]", "result": 38.9, "unit": "nM"}, {"measurement": "concentration at 24 h", "setting": "[1]; [3]", "result": 37.4, "unit": "nM"}, {"measurement": "concentration at 24 h", "setting": "[1]; [4]", "result": 18.3, "unit": "nM"}, {"measurement": "concentration at 24 h", "setting": "[1]; [5]", "result": 15.3, "unit": "nM"}, {"measurement": "concentration at 24 h", "setting": "[1]; [6]", "result": 8.5, "unit": "nM"}, {"measurement": "concentration at 0 h", "setting": "[1]; [7]", "result": 11, "unit": "nM"}, {"measurement": "concentration at 0 h", "setting": "[1]; [8]", "result": 8.43, "unit": "nM"}, {"measurement": "concentration at 0 h", "setting": "[1]; [9]", "result": 8.5, "unit": "nM"}, {"measurement": "concentration at 0 h", "setting": "[1]; [10]", "result": 6, "unit": "nM"}, {"measurement": "concentration at 0.5 h", "setting": "[1]; [7]", "result": 76.4, "unit": "nM"}, {"measurement": "concentration at 0.5 h", "setting": "[1]; [8]", "result": 33.3, "unit": "nM"}, {"measurement": "concentration at 0.5 h", "setting": "[1]; [9]", "result": 30.9, "unit": "nM"}, {"measurement": "concentration at 0.5 h", "setting": "[1]; [10]", "result": 8.9, "unit": "nM"}, {"measurement": "concentration at 1 h", "setting": "[1]; [7]", "result": 369, "unit": "nM"}, {"measurement": "concentration at 1 h", "setting": "[1]; [8]", "result": 166, "unit": "nM"}, {"measurement": "concentration at 1 h", "setting": "[1]; [9]", "result": 160, "unit": "nM"}, {"measurement": "concentration at 1 h", "setting": "[1]; [10]", "result": 42.3, "unit": "nM"}, {"measurement": "concentration at 2 h", "setting": "[1]; [7]", "result": 1200, "unit": "nM"}, {"measurement": "concentration at 2 h", "setting": "[1]; [8]", "result": 587, "unit": "nM"}, {"measurement": "concentration at 2 h", "setting": "[1]; [9]", "result": 554, "unit": "nM"}, {"measurement": "concentration at 2 h", "setting": "[1]; [10]", "result": 299, "unit": "nM"}, {"measurement": "concentration at 4 h", "setting": "[1]; [7]", "result": 1570, "unit": "nM"}, {"measurement": "concentration at 4 h", "setting": "[1]; [8]", "result": 1100, "unit": "nM"}, {"measurement": "concentration at 4 h", "setting": "[1]; [9]", "result": 1010, "unit": "nM"}, {"measurement": "concentration at 4 h", "setting": "[1]; [10]", "result": 751, "unit": "nM"}, {"measurement": "concentration at 8 h", "setting": "[1]; [7]", "result": 926, "unit": "nM"}, {"measurement": "concentration at 8 h", "setting": "[1]; [8]", "result": 520, "unit": "nM"}, {"measurement": "concentration at 8 h", "setting": "[1]; [9]", "result": 485, "unit": "nM"}, {"measurement": "concentration at 8 h", "setting": "[1]; [10]", "result": 253, "unit": "nM"}, {"measurement": "concentration at 12 h", "setting": "[1]; [7]", "result": 261, "unit": "nM"}, {"measurement": "concentration at 12 h", "setting": "[1]; [8]", "result": 161, "unit": "nM"}, {"measurement": "concentration at 12 h", "setting": "[1]; [9]", "result": 142, "unit": "nM"}, {"measurement": "concentration at 12 h", "setting": "[1]; [10]", "result": 90.4, "unit": "nM"}, {"measurement": "concentration at 24 h", "setting": "[1]; [7]", "result": 40.1, "unit": "nM"}, {"measurement": "concentration at 24 h", "setting": "[1]; [8]", "result": 19.3, "unit": "nM"}, {"measurement": "concentration at 24 h", "setting": "[1]; [9]", "result": 16.1, "unit": "nM"}, {"measurement": "concentration at 24 h", "setting": "[1]; [10]", "result": 12.1, "unit": "nM"}, {"measurement": "Geometric mean ratio (fasted/fed, 90% CI) for AUC0-inf", "setting": "[1]; plasma", "result": "0.58 (0.47 to 0.71)"}, {"measurement": "Geometric mean ratio (fasted/fed, 90% CI) for Cmax", "setting": "[1]; plasma", "result": "0.55 (0.45 to 0.68)"}, {"measurement": "Cmax in the plasma, fed compared to fasted subjects (in words)", "setting": "[1]", "result": "much higher"}, {"measurement": "Increase in overall exposure (AUC0-inf and AUClast), fed compared with fasted state", "setting": "[1]", "result": 1.7, "unit": "fold"}, {"measurement": "Tmax", "setting": "[2]; [11]", "result": 4, "unit": "h"}, {"measurement": "AUC(0-t)", "setting": "[2]; [11]", "result": 994, "unit": "ng·h/mL"}, {"measurement": "Cmax", "setting": "[2]; [11]", "result": 147, "unit": "ng/mL"}, {"measurement": "Tmax", "setting": "[2]; [12]", "result": 4, "unit": "h"}, {"measurement": "AUC(0-t)", "setting": "[2]; [12]", "result": 1070, "unit": "ng·h/mL"}, {"measurement": "Cmax", "setting": "[2]; [12]", "result": 152, "unit": "ng/mL"}, {"measurement": "Tmax", "setting": "[2]; [13]", "result": 4, "unit": "h"}, {"measurement": "AUC(0-t)", "setting": "[2]; [13]", "result": 3030, "unit": "ng·h/mL"}, {"measurement": "Cmax", "setting": "[2]; [13]", "result": 496, "unit": "ng/mL"}, {"measurement": "Tmax", "setting": "[2]; [14]", "result": 4, "unit": "h"}, {"measurement": "AUC(0-t)", "setting": "[2]; [14]", "result": 3720, "unit": "ng·h/mL"}, {"measurement": "Cmax", "setting": "[2]; [14]", "result": 516, "unit": "ng/mL"}, {"measurement": "Tmax", "setting": "[2]; [15]", "result": 4.6, "unit": "h"}, {"measurement": "AUC(0-t)", "setting": "[2]; [15]", "result": 4560, "unit": "ng·h/mL"}, {"measurement": "Cmax", "setting": "[2]; [15]", "result": 597, "unit": "ng/mL"}, {"measurement": "Tmax", "setting": "[2]; [16]", "result": 4, "unit": "h"}, {"measurement": "AUC(0-t)", "setting": "[2]; [16]", "result": 4860, "unit": "ng·h/mL"}, {"measurement": "Cmax", "setting": "[2]; [16]", "result": 678, "unit": "ng/mL"}, {"measurement": "AUC(0-inf)", "setting": "[2]; Day 1, sepiapterin 5 mg/kg once daily", "result": 1010, "unit": "ng·h/mL"}, {"measurement": "AUC(0-inf)", "setting": "[2]; Day 1, sepiapterin 20 mg/kg once daily", "result": 3080, "unit": "ng·h/mL"}, {"measurement": "AUC(0-inf)", "setting": "[2]; Day 1, sepiapterin 60 mg/kg once daily", "result": 4670, "unit": "ng·h/mL"}]}]}
